According to patent US20040044087A1, “Use of hop acids in fuel ethanol production” (priority 1999, published 2004):

Legend:
[1] = below pH 5; cited from earlier work
[2] = tested on: Lb. fermentum; assay: Wheat mash fermentation contaminated with Lb. fermentum; format: cell-based, Lactobacillus fermentum; conditions: Example 5, inoculated 10^7 CFU/mL; Penicillin G 0.25 ppm, Virginiamycin 0.5 ppm, hop products at effective concentration
Method: The clean breed strains were kept frozen at −101.2° F. in MRS-broth containing 8%-glycerol and were inoculated from there in 10 mL cap tubes containing 2 mL MRS-broth. The headspace of each tube was flushed with filter sterilized (0.45 μm pore size membrane filter) CO2-gas and the caps were sealed with paraffin wax coated film. The tubes were incubated in a controlled environmental shaker at 100 rpm at 86° F. (Lb. brevis) and 96.8° F. (Lb. fermentum). After 12 hours 1 mL of these preparatory cultures were each transferred into 10 mL cap tubes containing 9 mL MRS-broth and incubated for another 24 hours, afterwards transferred to 100 mL screw cap flasks containing 90 mL of MRS-broth and again incubated at the appropriate temperature for 24 hours. These portions were transferred to 1 L screw cap flasks, containing 750 mL MRS-broth and were again incubated for 24 hours.
For inoculation of wheat mash the bacterial cells were aseptically harvested in sterile centrifugal tubes by centrifugation at 10,200×g for 15 minutes at 4° C. […]
Cell numbers of the organisms were estimated using a Beck photometer. […] Appropriate quantities of the concentrated cell suspension were added to 500 g quantities of wheat mash in laboratory fermentation flasks to give initial viable cell numbers of 10^7 CFU/mL. […]

[3] = tested on: lactobacillus; conditions: stated as fact for comparison with ISOHOP; cited from earlier work
[4] = tested on: Lb. brevis; assay: Sugar beet molasses wort fermentation contaminated with Lb. brevis; format: cell-based, Lactobacillus brevis; conditions: 10^6 CFU/mL, Virginiamycin 0.5 ppm
Method: (§1) The clean breed strains were kept frozen at −101.2° F. in MRS-broth containing 8%-glycerol and were inoculated from there in 10 mL cap tubes containing 2 mL MRS-broth. The headspace of each tube was flushed with filter sterilized (0.45 μm pore size membrane filter) CO2-gas and the caps were sealed with paraffin wax coated film. The tubes were incubated in a controlled environmental shaker at 100 rpm at 86° F. (Lb. brevis) respectively 96.8° F. (Lb. fermentum). […] A filter sterilized (0.45 μm pore size membrane filter) 5 μl aliquot of the MRS-cell suspension for inoculation was determined by high performance liquid chromatography using a ProntoSIL 120-3-C18 AQ column which analyzes sugars, organic acids and alcohol, making sure glucose in the MRS-medium would be totally consumed and determining the amount of lactic acid an acetic acid added to fresh wort. Appropriate quantities of cell suspension were added to give a total of 500 g mash in laboratory fermentation flasks and initial viable bacterial cell numbers of 10^6 CFU/mL mash. The pH-value of the wort was afterwards readjusted to pH 5.2 if necessary. […]
(§2) The content of sucrose in beet molasses was determined by polarimeter after clarification with lead acetate. […]

[5] = tested on: Lb. fermentum; assay: Sugar beet molasses wort fermentation contaminated with Lb. fermentum; format: cell-based, Lactobacillus fermentum; conditions: 10^6 CFU/mL, Virginiamycin 0.5 ppm
Method: as §1, §2

Row | Compound | stability [1] | viable cells after fermentation, Lb. fermentum [2] | reduction of bacteria count [3] | viable cells after fermentation, Lb. brevis [4] | viable cells after fermentation, Lb. fermentum [5]
1 | CC1(C)S[C@@H]2[C@H](NC(=O)Cc3ccccc3)C(=O)N2[C@H]1C(=O)O [Penicillin G] | rather poor stability | practically no effect | – | – | –
2 | Virginiamycin | – | 10^3 cells/mL | 50% | no viable cells | no viable cells
